Test results as given in ChEMBL document CHEMBL5346922, “Discovery of phenylcarbamoyl xanthone derivatives as potent neuroprotective agents for treating ischemic stroke” (Eur J Med Chem, 2023).
Calls of active or inactive are those of the source. No cut-off for these calls is given here.

Experiments:
PC-12 [1] = assay: Neuroprotective activity in rat PC12 cells assessed as protection against glutamate induced excitotoxicity at 20 uM pretreated with glutamate for 24 hrs followed by compound addition and measured after 24 hrs; assay type: functional
PC-12 [2] = assay: Neuroprotective activity against H2O2-induced oxidative damage in rat PC12 cells at 20 uM pretreated with H2O2 for 24 hrs followed by compound addition and measured after 24 hrs; assay type: functional
PC-12 [3] = assay: Neuroprotective activity against glutamate induced excitotoxicity in rat PC12 cells pretreated with glutamate for 24 hrs followed by compound addition and measured after 24 hrs; assay type: functional, cell-based
PC-12 [4] = assay: Neuroprotective activity against H2O2-induced oxidative damage in rat PC12 cells pretreated with H2O2 for 24 hrs followed by compound addition and measured after 24 hrs; assay type: functional, cell-based
PC-12 [5] = assay: Neuroprotective activity against glutamate induced excitotoxicity in rat PC12 cells assessed as cell survival at 20 uM pretreated with glutamate for 24 hrs followed by compound addition and measured after 24 hrs; assay type: functional; conditions: read-out: Survival
PC-12 [6] = assay: Neuroprotective activity against H2O2-induced oxidative damage in rat PC12 cells assessed as increase in cell survival at 20 uM pretreated with H2O2 for 24 hrs followed by compound addition and measured after 24 hrs; assay type: functional; conditions: read-out: Survival
PC-12 [7] = assay: Cytotoxicity against rat PC12 cells assessed as reduction in cell viability incubated for 24 hrs by MTT assay; assay type: functional, cell-based

Compound | Activity (PC-12 [1]) [%] | Activity (PC-12 [2]) [%] | EC50 (PC-12 [3]) [µM] | EC50 (PC-12 [4]) [µM] | viability at 20 µM (PC-12 [5]) [%] | viability at 20 µM (PC-12 [6]) [%] | Activity (PC-12 [7])
COc1c(OC(=O)N(CC2CC2)c2cccc(F)c2)cc2oc3cc4c(c(O)c3c(=O)c2c1CC=C(C)C)C=CC(C)(C)O4 | 55.65 | 42.67 | 17.3 | 24.8 | 69.2 | 74.4 | 
COc1c(OC(=O)N(C)c2cccc(C)c2)cc2oc3cc4c(c(OC)c3c(=O)c2c1CC=C(C)C)C=CC(C)(C)O4 | 38.81 | 15.51 |  |  | 57.5 | 62.3 | 
COc1c(OC(=O)N(C)c2ccccc2F)cc2oc3cc4c(c(O)c3c(=O)c2c1CC=C(C)C)C=CC(C)(C)O4 | 43.78 | 34.69 |  |  | 60.9 | 70.9 | 
COc1c(OC(=O)N(C)c2ccccc2)cc2oc3c(CN4CCN(C)CC4)c4c(c(O)c3c(=O)c2c1CC=C(C)C)C=CC(C)(C)O4 |  |  |  |  |  |  | Active
COc1c(OC(=O)N(C)c2cccc(Cl)c2)cc2oc3cc4c(c(OC)c3c(=O)c2c1CC=C(C)C)C=CC(C)(C)O4 | 7.91 | 28.17 |  |  | 36 | 68 | 
CCN(C(=O)Oc1cc2oc3cc4c(c(O)c3c(=O)c2c(CC=C(C)C)c1OC)C=CC(C)(C)O4)c1ccccc1 | 38.13 | 21.74 |  |  | 57 | 65.1 | 
COc1c(OC(=O)N(C)c2ccccc2)cc2oc3cc4c(c(OCc5ccc(C(F)(F)F)cc5)c3c(=O)c2c1CC=C(C)C)C=CC(C)(C)O4 | 6.46 | 12.35 |  |  | 35 | 60.9 | 
CCOc1cccc(N(C)C(=O)Oc2cc3oc4cc5c(c(O)c4c(=O)c3c(CC=C(C)C)c2OC)C=CC(C)(C)O5)c1 | 18.96 | 8.38 |  |  | 43.7 | 59.1 | 
COc1ccc(N(C)C(=O)Oc2cc3oc4cc5c(c(O)c4c(=O)c3c(CC=C(C)C)c2OC)C=CC(C)(C)O5)cc1 | 26.88 | 16 |  |  | 49.2 | 62.5 | 
COc1ccccc1N(C)C(=O)Oc1cc2oc3cc4c(c(O)c3c(=O)c2c(CC=C(C)C)c1OC)C=CC(C)(C)O4 | 25.79 | 13.94 |  |  | 48.4 | 61.6 | 
COc1c(OC(=O)N(C)c2cccc(F)c2)cc2oc3cc4c(c(O)c3c(=O)c2c1CC=C(C)C)C=CC(C)(C)O4 | 53.62 | 12.46 | 19.7 |  | 67.8 | 60.9 | 
COc1c(OC(=O)N(C)c2ccc(C)cc2)cc2oc3cc4c(c(O)c3c(=O)c2c1CC=C(C)C)C=CC(C)(C)O4 | 29.08 | 17.03 |  |  | 50.7 | 63 | 
CCc1cccc(N(C)C(=O)Oc2cc3oc4cc5c(c(O)c4c(=O)c3c(CC=C(C)C)c2OC)C=CC(C)(C)O5)c1 | 37.14 | 11.9 |  |  | 56.3 | 60.7 | 
COc1c(OC(=O)N(C)c2cccc(C)c2)cc2oc3cc4c(c(O)c3c(=O)c2c1CC=C(C)C)C=CC(C)(C)O4 | 39.04 | 25.7 |  |  | 57.6 | 66.8 | 
COc1c(OC(=O)N(C)c2ccc(F)cc2)cc2oc3cc4c(c(O)c3c(=O)c2c1CC=C(C)C)C=CC(C)(C)O4 | 52.82 | 43.32 | 21.3 | 28.8 | 67.2 | 74.7 | 
COc1c(OC(=O)N(C)c2cccc(Cl)c2)cc2oc3cc4c(c(O)c3c(=O)c2c1CC=C(C)C)C=CC(C)(C)O4 | 1.57 | 6.23 |  |  | 31.6 | 58.2 | 
CCc1ccc(N(C)C(=O)Oc2cc3oc4cc5c(c(O)c4c(=O)c3c(CC=C(C)C)c2OC)C=CC(C)(C)O5)cc1 | 29.26 | 22.79 |  |  | 50.8 | 65.5 | 

Compound | Activity (PC-12 [1]) [%] | Activity (PC-12 [2]) [%] | EC50 (PC-12 [3]) [µM] | EC50 (PC-12 [4]) [µM] | viability at 20 µM (PC-12 [5]) [%] | viability at 20 µM (PC-12 [6]) [%] | Activity (PC-12 [7])
COc1cccc(N(C)C(=O)Oc2cc3oc4cc5c(c(O)c4c(=O)c3c(CC=C(C)C)c2OC)C=CC(C)(C)O5)c1 | 31.84 | 9.57 |  |  | 52.6 | 59.6 | 
COc1c(OC(=O)N(C)c2ccccc2)cc2oc3cc4c(c(OC)c3c(=O)c2c1CC=C(C)C)C=CC(C)(C)O4 | 46.32 | 34.72 |  |  | 62.7 | 70.9 | 
COc1c(OC(=O)N(CC2CC2)c2cccc(C)c2)cc2oc3cc4c(c(O)c3c(=O)c2c1CC=C(C)C)C=CC(C)(C)O4 | 35.08 | 39.49 |  |  | 54.9 | 73 | 
COc1c(OC(=O)N(CC2CC2)c2ccccc2C)cc2oc3cc4c(c(O)c3c(=O)c2c1CC=C(C)C)C=CC(C)(C)O4 | 0 | 11.7 |  |  | 30.5 | 60.6 | 
COc1c(OC(=O)N(CC2CC2)c2ccc(C)cc2)cc2oc3cc4c(c(O)c3c(=O)c2c1CC=C(C)C)C=CC(C)(C)O4 | 48.26 | 30.57 |  |  | 64 | 69 | 
COc1c(OC(=O)N(C)c2ccccc2C)cc2oc3cc4c(c(OC)c3c(=O)c2c1CC=C(C)C)C=CC(C)(C)O4 | 31.44 | 31.11 |  |  | 52.3 | 69.3 | 
COc1c(OC(=O)N(C)c2ccccc2C)cc2oc3cc4c(c(O)c3c(=O)c2c1CC=C(C)C)C=CC(C)(C)O4 | 36.26 | 25.55 |  |  | 55.7 | 66.8 | 
COc1c(OC(=O)N(C)c2ccc(C(C)(C)C)cc2)cc2oc3cc4c(c(O)c3c(=O)c2c1CC=C(C)C)C=CC(C)(C)O4 | 12.14 | 18.35 |  |  | 38.9 | 63.6 | 
CC1=NN(c2ccccc2)C(=O)C1 [EDARAVONE] |  | 56.36 |  |  |  | 80.5 | 
COc1c(OC(=O)N(C)c2ccc(C)cc2)cc2oc3cc4c(c(OC)c3c(=O)c2c1CC=C(C)C)C=CC(C)(C)O4 | 26.81 | 33.3 |  |  | 49.1 | 70.2 | 
COc1c(OC(=O)N(CC2CC2)c2cccc(Br)c2)cc2oc3cc4c(c(O)c3c(=O)c2c1CC=C(C)C)C=CC(C)(C)O4 | 23.09 | 17.48 |  |  | 46.5 | 63.2 | 
COc1c(OC(=O)N(CC2CC2)c2cccc(Cl)c2)cc2oc3cc4c(c(O)c3c(=O)c2c1CC=C(C)C)C=CC(C)(C)O4 | 46.68 | 45.94 |  | 26.2 | 62.9 | 75.9 | 
CCc1ccccc1N(C)C(=O)Oc1cc2oc3cc4c(c(O)c3c(=O)c2c(CC=C(C)C)c1OC)C=CC(C)(C)O4 | 35.36 | 17.35 |  |  | 55.1 | 63.1 | 
COc1c(OC(=O)N(C)c2ccccc2)cc2oc3cc4c(c(OCc5ccc(F)cc5)c3c(=O)c2c1CC=C(C)C)C=CC(C)(C)O4 | 0.01 | 22.59 |  |  | 31 | 65.5 | 
COc1c(OC(=O)N(C)c2cccc(Br)c2)cc2oc3cc4c(c(O)c3c(=O)c2c1CC=C(C)C)C=CC(C)(C)O4 | 3.74 | 5.11 |  |  | 33.1 | 57.7 | 
COc1c(OC(=O)N(CC2CC2)c2ccccc2)cc2oc3cc4c(c(O)c3c(=O)c2c1CC=C(C)C)C=CC(C)(C)O4 | 53.91 | 42.11 | 20.9 | 29.2 | 68 | 74.2 | 
